Data: patent US5808144A, “Benzene derivatives” (Teijin Limited, priority 1995, dated 1998)

Key:
[1] = test system: human IgG antibody; test: Human IgG antibody production-inhibiting activity in vitro (lymphocytes + IL-4 + anti-CD40 Ab + IL-10, sandwich ELISA); format: cell-based; conditions: Lymphocyte; for inhibition at 0.1 µM: 100 nM (0.1 μM), vs. no compound; for IC50: IgG antibody production
Procedure: (§1) Measurement of human IgE antibody production-inhibiting activity in vitro
(§2) In accordance with the following method established with reference to The Journal of Immunology (J. Immunol.), Vol. 146, 1836 to 1842 (1991) and the Journal of Immunology (J. Immunol.), Vol. 147, 8 to 13 (1991), the concentrations of IgE and […], when the compounds of the present invention shown in Table 12 were employed, were measured.
(§3) Peripheral venous blood gathered from a healthy person was subjected to a density-gradient centrifugation to isolate lymphocytes therefrom. The isolated lymphocytes were washed and suspended in a culture medium liquid (RPMI-1640 (made by Gibco Co.)+10% heat-inactivated FCS (made of Whittaker Co.)+100 μg/ml streptomycin+100 U/ml penicillin G+2 mM L-glutamine). The lymphocytes in the suspension were cultured for one week in the presence or non-presence of the above-mentioned compounds and in the presence of an interleukin 4 (IL-4, made by GENZYME CO.) (0.1 mg/ml), an anti-CD 40 antibodies (anti CD 40 Ab, made by BIOSOURCE CO., clone B-B20) (0.2 mg/ml), and an interleukin 10 (IL-10, made by GENZYME CO.) (0.2 mg/ml). To this culture system, the same culture medium liquid as mentioned above was supplemented, and then the culture was further carried out for one week. Thereafter, the concentrations of IgE antibodies and IgG antibodies in the supernatant of the culture mixture were measured by a sandwich ELISA method. In the measurement by the ELISA method, the concentration of the IgE antibodies was determined by using a primary antibody consisting of a rabbit anti-human IgE (ε) antibody (made by IGN Co.) and a secondary antibody consisting of biotin-anti-human IgE monoclonal antibody (G7-26, made by Phar Mingen Co.), and the concentration of IgG antibodies was determined by using a primary antibody consisting of anti-human IgG monoclonal antibody (G18-145, made by Phar Mingen Co.) and a secondary antibody consisting of biotin-donkey anti-human IgG antibody (H+L), made by Jackson Co.). Also, in the measurement of IgE and IgG antibody concentrations, as an enzyme, an Avidin-Biotin-HRP (Avidin-Biotin-Horse Radish Peroxidase; ABC kit, made by Vector Lab.) was used and as a substrate, TMB (3,3', 5,5'-tetramethylbenzidine) Microwell Peroxidase Substrate System (made by Kirkegaad & Perry Laboratories Inc.) was used.
(§4) On the basis of each antibody concentration when the compound of the present invention was not present, each antibody production-inhibition (%) in a concentration of the compound to be tested of 0.1 μM was calculated. Further, with respect to some of the compounds tested, the antibody production-inhibitions (%) of the tested compounds were measured in various concentrations thereof, and IC 50 values thereof were calculated. (Refer to Uejima et al., American Academy of Allergy & Immunology, Proceeding of 1995 Annual Meeting, Program No. 818).

[2] = test system: human IgE antibody; test: Human IgE antibody production-inhibiting activity in vitro (lymphocytes + IL-4 + anti-CD40 Ab + IL-10, sandwich ELISA); format: cell-based; conditions: Lymphocyte; for inhibition at 0.1 µM: 100 nM (0.1 μM), vs. no compound; for IC50: IgE antibody production
Procedure: as §1, §2, §3, §4

[3] = test system: anti-TNP IgM; test: TNP-sensitive mice: serum anti-TNP IgM (ELISA); format: in vivo, mouse; conditions: serum day 11, vehicle 110 ± 9
Procedure: (§5) Measurement of IgE antibody production-inhibiting performance on TNP-sensitive mice
(§6) TNP-KLH (2 μg/head) and Alum (1 mg/head) were dosed into the abdominal cavities of 8-week-old male mice to sensitize the mice.
(§7) Compound No. 14 was suspended in a concentration of 1.0 mg/ml, 3.0 mg/ml or […] in an aqueous 5% gum arabi solution, and each suspension was perorally dosed to three groups of mice for medication, to which each medicine was dosed at a dosage of 10 ml/kg, (namely, 10 mg/kg, 30 mg/kg or 100 mg/kg), once a day continuously for 10 days from the sensitized day. For a vehicle mouse group, the above-mentioned aqueous gum arali solution was dosed in the same amount as mentioned above in the same manner as mentioned above.
(§8) On the day after the final dosing day (the eleventh day), blood was extracted from the heart of the mouse, and a TNP specific antibody value of a blood serum obtained from the extracted blood was measured in accordance with ELISA method.

[4] = test system: anti-TNP IgE; test: IgE antibody production-inhibiting performance on TNP-sensitive mice: serum anti-TNP IgE (ELISA); format: in vivo, mouse; conditions: serum day 11, vehicle 433 ± 118
Procedure: as §5, §6, §7, §8

[5] = test system: anti-TNP IgG; test: TNP-sensitive mice: serum anti-TNP IgG (ELISA); format: in vivo, mouse; conditions: serum day 11, vehicle 4390 ± 2630
Procedure: as §5, §6, §7, §8

[6] = 10 mg/kg p.o. once a day for 10 days
[7] = 30 mg/kg p.o. once a day for 10 days
[8] = 100 mg/kg p.o. once a day for 10 days, ** p < 0.01 vs. vehicle

| Structure (SMILES) | inhibition at 0.1 µM [1] [%] | IC50 [1] [nM] | inhibition at 0.1 µM [2] [%] | IC50 [2] [nM] | other results |
| --- | --- | --- | --- | --- | --- |
| CCC(CC)Oc1ccc(Oc2ccc(CC(=O)Nc3ccccc3C(=O)O)cc2)cc1 [compound 20, 2-(4-(4-(3-pentyloxy)phenoxy)phenylacetamido)benzoic acid] | 52.6 | > 100 | 100 | 35 | – |
| O=C(Cc1ccc(Oc2ccc(OC3CCCC3)cc2)cc1)Nc1ccccc1C(=O)O [compound 12, 2-(4-(4-cyclopentyloxyphenoxy)phenylacetamido)benzoic acid] | 95.8 | > 100 | 100 | 44 | – |
| O=C(Cc1ccc(Oc2ccc(OC3CCCCCCCCCCC3)cc2)cc1)Nc1ccccc1C(=O)O [compound 16, 2-(4-(4-cyclododecanyloxyphenoxy)phenylacetamido)benzoic acid] | 95.8 | 46 | 100 | 22 | – |
| O=C(Nc1ccccc1C(=O)O)c1ccc(Oc2ccc(OC3CCCCCCC3)cc2)cc1 [compound 22, 2-(4-(4-cyclooctyloxyphenoxy)benzamido)benzoic acid] | -33.2 | – | 51 | – | – |
| O=C(Cc1ccc(Oc2ccc(OC3CCCCC3)cc2)cc1)Nc1ccccc1C(=O)O [Compound No. 8, 2-(4-(4-cyclohexyloxyphenoxy)phenylacetamido)benzoic acid] | 40.6 | 50 | 95.5 | 17 | – |
| O=C(Cc1ccc(Oc2ccc(OCc3ccccc3)cc2)cc1)Nc1ccccc1C(=O)O [Compound No. 4, 2-(4-(4-benzyloxyphenoxy)phenylacetamido)benzoic acid] | 100 | 200 | 100 | 28 | – |
| CC(C)Oc1ccc(Oc2ccc(CC(=O)Nc3ccccc3C(=O)O)cc2)cc1 [compound 18, 2-(4-(4-isopropyloxyphenoxy)phenylacetamido)benzoic acid] | -1.7 | – | 19.5 | – | – |
| O=C(Cc1ccc(Oc2ccc(OC3CCCCCCC3)cc2)cc1)Nc1ccccc1C(=O)O [Compound No. 14, 2-(4-(4-cyclooctyloxyphenoxy)phenylacetamido)benzoic acid] | 93.8 | 12 | 100 | 6 | anti-TNP IgM [3, 6]: 79 ± 40 µg/mL; anti-TNP IgM (μg/ml) [3, 7]: 73 ± +26 μg/ml; anti-TNP IgM [3, 8]: 20 ± 5.0 µg/mL; anti-TNP IgE [4, 6]: 127 ± 72 ng/mL; anti-TNP IgE ([4]; 30 mg/kg p.o. once a day for 10 days, ** p < 0.01 vs. vehicle): 52 ± 30 ng/mL; anti-TNP IgE [4, 8]: 0.2 ± 0.4 ng/mL; anti-TNP IgG [5, 6]: 2980 ± 2310 ng/mL; anti-TNP IgG [5, 7]: 2500 ± 1700 ng/mL; anti-TNP IgG [5, 8]: 16 ± 18 ng/mL |
| O=C(Nc1ccccc1C(=O)O)c1ccc(Oc2ccc(O)cc2)cc1 [compound 30, 2-(4-(4-hydroxyphenoxy)benzamido)benzoic acid] | -31.7 | – | 25.7 | – | – |
